Laboratory results from US7034045B1, “Monofluoroalkyl derivatives” (Eli Lilly and Company, priority 1999, dated 2006).

melting point: 155 to 157 °C
Structure (SMILES): CC(C)S(=O)(=O)NCC(C)(F)c1ccc(-c2ccc(CC#N)cc2)cc1 (stereo not shown) [Example 9, 2-{4-[4-(1-Fluoro-1-methyl-2-{[(methylethyl)sulfonyl]amino}ethyl)phenyl]phenyl}ethanenitrile]
